Source: publication PMC12291762 (Antioxidants, 2025)

What was measured:
COX-2 = target: T1, COX-2 (Homo sapiens, UniProt P35354); assay: Fluorometric COX-2 inhibitor screening kit; type: biochemical; conditions: mean ± standard error, three independent measurements
T1 construct: purchased Abcam ab283401
T1 sequence (P35354 18-604): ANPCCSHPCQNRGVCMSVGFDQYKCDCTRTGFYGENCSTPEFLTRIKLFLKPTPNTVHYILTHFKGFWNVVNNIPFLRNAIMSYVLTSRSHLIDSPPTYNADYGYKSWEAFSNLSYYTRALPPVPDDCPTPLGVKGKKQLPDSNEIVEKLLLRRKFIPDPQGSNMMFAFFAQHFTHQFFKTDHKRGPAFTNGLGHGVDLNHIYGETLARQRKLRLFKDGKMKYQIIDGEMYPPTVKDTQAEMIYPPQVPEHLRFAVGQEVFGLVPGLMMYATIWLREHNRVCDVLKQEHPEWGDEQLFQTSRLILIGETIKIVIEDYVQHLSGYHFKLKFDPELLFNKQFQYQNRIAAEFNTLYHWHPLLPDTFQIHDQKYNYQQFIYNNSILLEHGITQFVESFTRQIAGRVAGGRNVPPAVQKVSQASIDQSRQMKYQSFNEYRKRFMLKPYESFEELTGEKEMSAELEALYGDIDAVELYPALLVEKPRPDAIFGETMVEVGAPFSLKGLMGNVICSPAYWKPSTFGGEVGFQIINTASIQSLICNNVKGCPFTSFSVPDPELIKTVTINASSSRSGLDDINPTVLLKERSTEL
Description: The inhibitory activity of the tested compounds against COX-1 and COX-2 isoforms was assessed using fluorometric cyclooxygenase inhibitor screening kits (Catalog Numbers ab204698 and ab283401, respectively; Abcam, Cambridge, UK). These assays detect the formation of prostaglandin G2, a product of COX enzymatic activity, via fluorometric measurement.
Stock solutions of the test compounds were prepared at a concentration of 5 mM in DMSO and subsequently diluted with the same solvent to obtain the test solutions. For the assay preparation, 2 μL of each test solution was diluted with 8 μL of COX assay buffer. The solvent control (SC) consisted of 2 μL of DMSO and 8 μL of assay buffer, while the enzyme control (EC) contained 10 μL of assay buffer alone. Sample wells (S) received 10 μL of the diluted test solutions. All other steps were in accordance with the manufacturer’s protocol and the previously published article. Fluorescence was measured kinetically over a 10 min period at 25 °C, using the excitation and emission wavelengths of 535 nm and 587 nm, respectively. The percentage of inhibition was calculated as follows:(3) % Relative Inhibition=Slope of EC−Slope of S/Slope of EC×100
Fluorescence measurements were conducted on a BioTek Synergy LX multi-mode reader (Winooski, VT, USA).

[1] = system: systemic oxidative stress parameters; assay: Systemic redox state (plasma, erythrocyte lysate) 24 h after carrageenan; type: in vivo, Wistar albino rats
Description: Following 24 h of carrageenan-induced paw edema inflammation model and intraperitoneal anesthesia induced by ketamine/xylazine (100/10 mg/kg of BW), the animals were sacrificed, while whole-blood samples and edema-affected paw tissues were isolated. After centrifugation of whole blood, plasma and erythrocyte lysate samples were separated for further examination of the applied compounds’ effects on the systemic redox balance state. Pro-oxidative markers including superoxide anion radical (O2∙^−), hydrogen peroxide (H2O2) nitrites (NO2^−), and index of lipid peroxidation measured as thiobarbituric acid (TBA) reactive substances (TBARS) were determined from plasma samples, while the antioxidant capacity, including superoxide dismutase (SOD) and catalase (CAT) activity, as well as the reduced glutathione (GSH) level were examined in erythrocyte lysate samples [46]. […] Edema-affected paw tissue samples were weighed (100 mg) and homogenized (OmniPrep™ multi-sample homogenizer, Omni International, Kennesaw, GA, USA) in 900 µL phosphate buffer on ice (pH = 7.4), and centrifuged at 12,000 rpm for 20 min. These supernatant samples were used for the determination of the aforementioned pro-oxidative and antioxidative parameters levels. All oxidative stress analyses were performed spectrophotometrically using a Shimadzu UV 1800 spectrophotometer (Kyoto, Japan).
Determination of the O2∙^− level was conducted by adding 950 µL of a Nitro Blue Tetrazolium (NBT) mixture with TRIS buffer in 50 µL of sample, measured at the 550 nm wavelength. The level of H2O2 was determined during the oxidation of phenol red by H2O2, which was catalyzed with horseradish peroxidase and measured at the 610 nm wavelength. Indirect measurement of nitrites was performed by the precipitation of samples with 30% sulfo-salicylic acid, followed by vortexing and centrifugation at 3000 rpm for 15 min. The equal volumes of isolated supernatant and Griess’ reagent (containing 1% sulfanilamide in 5% phosphoric acid/0.1% naphthalene ethylenediamine-dihydrochloride) were incubated for 10 min and measured at the 550 nm wavelength. The TBARS concentration was determined by adding 400 µL of sample to 200 µL of TBA in 0.05 M NaOH, followed by 15 min incubation at 100 °C. Measurement was performed at the 530 nm wavelength.
The epinephrine method was used for SOD determination. By adding 100 µL of sample, the same volume of epinephrine, and 1000 µL of carbonate buffer, the measurement was performed at the 470 nm wavelength. The determination of CAT activity was based on the preparation of a mixture containing 100 µL of sample, 50 µL of catalase buffer, and 1000 µL of 10 mM H2O2, which was measured at the 230 nm wavelength.

[2] = system: carrageenan-induced rat paw edema; assay: Carrageenan-induced rat paw edema model of acute inflammation; type: in vivo, Wistar albino rats; conditions: for % of inhibition of paw edema, 1 h / Rat paw thickness, 1 h / % of inhibition of paw edema, 2 h / Rat paw thickness, 2 h / % of inhibition of paw edema, 3 h / Rat paw thickness, 3 h / % of inhibition of paw edema, 4 h / Rat paw thickness, 4 h / Anti-inflammatory effect on edema diameter compared to the control group (significance): 0.0315 mmol/kg i.p.; for % of inhibition of paw edema, 1 h / % of inhibition of paw edema, 2 h / % of inhibition of paw edema, 3 h / % of inhibition of paw edema, 4 h: vs solvent group; for Rat paw thickness, 1 h: 1 h post-carrageenan; for Rat paw thickness, 1 h / Rat paw thickness, 2 h / Rat paw thickness, 3 h / Rat paw thickness, 4 h / Rat paw thickness, 0 h: mean ± SD; for Rat paw thickness, 2 h: 2 h post-carrageenan; for Rat paw thickness, 3 h: 3 h post-carrageenan; for Rat paw thickness, 4 h: 4 h post-carrageenan; for Anti-inflammatory effect on edema diameter compared to the control group (significance): from 2nd hour to end of observation; for Rat paw thickness, 0 h: immediately before inflammation induction
Description: Inflammation was induced in all rats by an intraplantar injection of 100 μL of freshly prepared 1% carrageenan solution in distilled water into the left hind paw. A total of 56 male Wistar albino rats were randomly divided into five experimental groups (n = 40 rats, 8 rats per subgroup) and two control groups (n = 16 rats, 8 rats per subgroup).
The experimental groups consisted of rats that received synthesized compounds via intraperitoneal injection immediately following carrageenan administration. The solutions of the investigated molecules were prepared by dissolving the compound in distilled water with the addition of a few drops of Tween 80 [18], whereby each rat received 500 μL of the prepared solution. […] The negative control group included rats that received an intraperitoneal injection of the solvent solution (distilled water with a few drops of Tween 80) at the same time point.
To quantify the anti-edematous effect, the thickness of the left paw tissue of each rat was measured at specific time intervals: immediately before inflammation induction (moment 0) and at 1, 2, 3, and 4 h post-induction (moments 1, 2, 3, and 4, respectively). Tissue thickness was assessed in the middle of the rat paw using a digital vernier caliper (Aerospace, Beijing, China).

IC50 (COX-2)	Compound	Systemic CAT activity compared to Dex group ([1]; erythrocyte lysate)	Systemic GSH level compared to Dex group ([1]; erythrocyte lysate)	Systemic SOD activity compared to Dex group ([1]; erythrocyte lysate)	Systemic O2∙− level compared to Dex group ([1]; plasma)	Systemic TBARS level compared to Dex group ([1]; plasma)	% of inhibition of paw edema, 1 h [2]	Rat paw thickness, 1 h [2]	% of inhibition of paw edema, 2 h [2]	Rat paw thickness, 2 h [2]	% of inhibition of paw edema, 3 h [2]	Rat paw thickness, 3 h [2]	% of inhibition of paw edema, 4 h [2]	Rat paw thickness, 4 h [2]	Anti-inflammatory effect on edema diameter compared to the control group (significance) [2]	Rat paw thickness, 0 h [2]	Systemic GSH level compared to untreated rats ([1]; erythrocyte lysate)	Systemic O2∙− level compared to untreated (Sol) rats ([1]; plasma)	Systemic TBARS level compared to Sol (untreated) rats ([1]; plasma)	Systemic H2O2 level compared to Dex group ([1]; plasma)
37.5 ± 3.43 µM	C[C@H](C(=O)N[C@@H](Cc1c[nH]c2ccccc12)C(=O)O)c1cccc(C(=O)c2ccccc2)c1 [Compound 4, ((S)-2-(3-benzoylphenyl)propanoyl)-L-tryptophan]	decreased this enzyme activity	significantly reduced	significantly lower activity	significantly higher concentration	dexketoprofen injection significantly decreased the TBARS concentration compared to the Sol group, as well as rats treated with compounds 1, 3, and 4	15.038%	5.90 ± 0.37 mm	24.460%	5.77 ± 0.36 mm	28.070%	5.38 ± 0.34 mm	58.824%	4.48 ± 0.33 mm	significantly reduced the edema diameter	4.02 ± 0.12 mm	–	–	–	–
> 100 µM	C[C@H](NC(=O)[C@@H](C)c1cccc(C(=O)c2ccccc2)c1)C(=O)O [Compound 2, ((S)-2-(3-benzoylphenyl)propanoyl)-L-alanine]	highest potential to increase CAT activity	–	no statistical differences	no significant difference	–	16.090%	6.52 ± 0.28 mm	26.619%	6.36 ± 0.25 mm	33.684%	5.92 ± 0.19 mm	62.941%	5.08 ± 0.54 mm	significantly reduced the edema diameter	4.66 ± 0.13 mm	significantly increased GSH level	significantly lower	–	–
> 100 µM	C[C@H](C(=O)NCC(=O)O)c1cccc(C(=O)c2ccccc2)c1 [Compound 1, (S)-(2-(3-benzoylphenyl)propanoyl)glycine]	–	–	significantly lower activity	significantly higher concentration	dexketoprofen injection significantly decreased the TBARS concentration compared to the Sol group, as well as rats treated with compounds 1, 3, and 4	5.263%	5.68 ± 0.25 mm	13.669%	5.58 ± 0.34 mm	16.842%	5.16 ± 0.34 mm	18.824%	4.50 ± 0.29 mm	did not achieve an anti-inflammatory effect at any measurement times	3.58 ± 0.13 mm	–	–	significantly reducing	–
> 100 µM	C[C@H](C(=O)NCCCC(=O)O)c1cccc(C(=O)c2ccccc2)c1 [Compound 5, (S)-4-(2-(3-benzoylphenyl)propanamido)butanoic acid]	–	–	no statistical differences	no significant difference	–	7.068%	5.52 ± 0.25 mm	17.122%	5.38 ± 0.48 mm	18.947%	5.00 ± 0.29 mm	27.647%	4.28 ± 0.37 mm	–	3.46 ± 0.29 mm	significantly increased GSH level	significantly lower	significantly reducing	did not differ significantly
> 100 µM	C[C@H](C(=O)N[C@@H](Cc1ccccc1)C(=O)O)c1cccc(C(=O)c2ccccc2)c1 [Compound 3, ((S)-2-(3-benzoylphenyl)propanoyl)-L-phenylalanine]	–	–	significantly lower activity	no significant difference	dexketoprofen injection significantly decreased the TBARS concentration compared to the Sol group, as well as rats treated with compounds 1, 3, and 4	10.526%	6.25 ± 0.25 mm	20.863%	6.10 ± 0.18 mm	22.807%	5.73 ± 0.23 mm	–	4.93 ± 0.37 mm	–	4.27 ± 0.21 mm	–	significantly lower	–	–
